# According to US7517889B2, “2,6-substituted-4-monosubstitutedamino-pyrimidine as prostaglandin D2 receptor antagonists” (Aventis Pharmaceuticals, Inc., priority 2004, dated 2009):
# Where a name gives a salt, the structure may show the parent alone.
# Target: T1, DP receptor (Homo sapiens, UniProt Q13258)
# T1 construct: the human cell line LS174T, which expresses the endogenous DP receptor; endogenous in cells; host or cells: LS174T human cell line
# T1 sequence (Q13258 1-359): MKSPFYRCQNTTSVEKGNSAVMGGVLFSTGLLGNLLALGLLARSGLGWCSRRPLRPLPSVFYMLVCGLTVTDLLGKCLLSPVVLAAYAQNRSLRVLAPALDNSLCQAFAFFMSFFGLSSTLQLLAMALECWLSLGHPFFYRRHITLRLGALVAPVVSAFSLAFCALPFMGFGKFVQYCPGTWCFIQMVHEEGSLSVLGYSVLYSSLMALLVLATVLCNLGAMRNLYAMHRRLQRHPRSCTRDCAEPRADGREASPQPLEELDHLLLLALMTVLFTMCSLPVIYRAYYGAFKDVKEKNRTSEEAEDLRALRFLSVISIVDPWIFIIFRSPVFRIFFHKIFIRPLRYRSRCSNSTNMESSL
# Test: SPA cAMP assay in human LS174 T cells (human DP functional assay)
# Assay type: cell-based
# Conditions: inhibition of PGD2 (15 nM final) stimulated cAMP, LS174T cells expressing endogenous DP receptor
# Experimental: The inhibitory effects of the compounds according to the invention are assessed in a human DP functional assay. A cAMP assay is employed using the human cell line LS174T, which expresses the endogenous DP receptor.
# Protocol for SPA cAMP Assay in Human LS174 T Cells
# • 1) Add equal volumes of tracer, antiserum and SPA anti-rabbit reagent to a bottle, ensuring that a sufficient volume of this mixture is prepared for the desired number of wells (150 μL/well). • 2) Mix thoroughly. • 3) This immunoreagent solution should be freshly prepared before each assay and not re-used.
# Add 50 μL of […] IBMX into 100 mL PBS to make a final concentration of 100 μM and sonicate at 30° C. for 20 minutes.
# Before each assay, it is freshly prepared. Add 3 μL of 10 mM stock solution to 20 mL DMSO, mix it thoroughly, and transfer 10 mL to 40 mL PBS.
# Compound dilution is carried out in Biomex 2000 (Beckman) using Method 1_cAMP DP 11 points.
# 5 μL of each compound from the 10 mM stock compound plates is transferred to the wells of a 96-well plate respectively as below.
# Fill the plate with 45 μL of DMSO except column 7 is filled with 28 μL DMSO. Pipette column 1 thoroughly, and transfer 12 μL into column 7 parallel. Perform 1:10 serial dilution from column 1 to column 6 and from column 7 to column 11 by transfer 5 μL to 45 μL DMSO to make following concentrations:
# Fill a new 96-well plate with 247.5 μL of compound dilution buffer. Transfer 2.5 μL of serially diluted compounds from above plate to the new plate (1:100 dilution) as following:
# Cell Growth • 1. […] Remove growth medium from cells. Cells in T165 flask are washed twice with 4 mL Trypsin followed by incubation at 37° C. and 5% CO2 for 3 minutes. • 4. Add 10 mL of medium and pipette thoroughly to separate the cells and count the cells. • 5. […] Assay Procedure Day 1 • Seed 45,000 cells/well in 200 μL medium in 96-well plates. Incubate the cell plate at 37° C., 5% CO2 and 95% humidity overnight. Day 2 • 1. Perform compound dilution. • 2. Prepare assay buffer, lysis buffer 1 & 2, PGD2 and standard. • 3. Aspirate media from the cells and add 100 μL of compound solution using Zymark Sciclone-ALH/FD protocol cAMP DP. • 4. Incubate the cells at 37° C., 5% CO2 and 95% humidity for 15 minutes. • 5. […] Aspirate media from the cells and add 50 μL of lysis buffer 1 using Zymark protocol cAMP DP lysis, and incubate at room temperature with shaking for 30 minutes. • 7. Add 150 μL immunoreagent to all wells (a total volume of 200 μL/well). • 8. Seal the plates and shake for 2 minutes, put into the chamber of the Wallac microtitre plate μ scintillation counter for 16 hours. […] Data Processing Set up standard curve of cAMP versus CPM.
# The cAMP concentrations (pmol/mL) of unknown samples are calculated from a standard curve of cAMP versus CPM. % inhibition is calculated using the following formula: […]
row,IC50 [nM],Structure (SMILES)
1,6250,"COC(=O)c1cccc(Oc2cc(NCCc3ccc(OC)c(OC)c3)nc(OC)n2)c1 [Example (63), 3-{6-[2-(3,4-dimethoxy-phenyl)-ethylamino]-2-methoxy-pyrimidin-4-yloxy}-benzoic acid methyl ester]"
2,7.8,"COc1ccc(CCNc2cc(-c3cnco3)nc(OC)n2)cc1 [Example 45, (2-Methoxy-6-oxazol-5-yl-pyrimidin-4-yl)-[2-(4-methoxy-phenyl)-ethyl]-amine]"
3,0.6,"COc1nc(NCCc2c(F)cccc2Cl)cc(-c2cccc(COCC(=O)O)c2)n1 [Example 56, (3-{6-[2-(2-Chloro-6-fluoro-phenyl)-ethylamino]-2-methoxy-pyrimidin-4-yl}-benzyloxy)-acetic acid]"
4,0.7,"COc1ccc(CCNc2cc(-c3ccc4[nH]ccc4c3)nc(OC)n2)cc1 [Example 10(c), [6-(1H-Indol-5-yl)-2-methoxy-pyrimidin-4-yl]-[2-(4-methoxy-phenyl)-ethyl]-amine]"
5,26,"COc1ccc(CCNc2cc(-c3cn[nH]c3)nc(OC)n2)cc1 [Example 8(f), [2-(4-Methoxy-phenyl)-ethyl]-[2-methoxy-6-(1H-pyrazol-4-yl)-pyrimidin-4-yl]-amine]"
6,1.7,"COc1ccc(CCNc2cc(-c3ccc(OC)nc3)nc(OC)n2)cc1 [Example 35(o), [2-Methoxy-6-(6-methoxy-pyridin-3-yl)-pyrimidin-4-yl]-[12-(4-methoxy-phenyl)-ethyl]-amine]"
7,7,"COc1ccc(CCNc2cc(-c3ccc4[nH]c(=O)oc4c3)nc(OC)n2)cc1 [Example 14(c), 6-{2-Methoxy-6-[2-(4-methoxy-phenyl)-ethylamino]-pyrimidin-4-yl}-3H-benzooxazol-2-one]"
8,0.4,"COc1nc(NCCc2ccc(C(F)(F)F)cc2F)cc(-c2ccc3[nH]cc(CC(=O)O)c3c2)n1 [Example 52, (5-{6-[2-(2-Fluoro-4-trifluoromethyl-phenyl)-ethylamino]-2-methoxy-pyrimidin-4-yl}-1H-indol-3-yl)-acetic acid]"
9,1.2,"COc1nc(NCCc2c(F)cccc2Cl)cc(-c2ccc(=O)n(Cc3n[nH]c(=O)o3)c2)n1 [Example 33, 5-{6-[2-(2-Chloro-6-fluoro-phenyl)-ethylamino]-2-methoxy-pyrimidin-4-yl}-1-(5-oxo-4,5-dihydro-[1,3,4]oxadiazol-2-ylmethyl)-1H-pyridin-2-one]"
10,256,"COc1nc(NCCc2ccc(OC)c(OC)c2)cc(-c2ccco2)n1 [Example 35(d), [2-(3,4-Dimethoxy-phenyl)-ethyl]-(6-furan-2-yl-2-methoxy-pyrimidin-4-yl)-amine]"
11,37,"COc1nc(NCCc2ccc(C(F)(F)F)cc2F)cc(-c2cccc(CCNC(C)=O)c2)n1 [Example 65, N-[2-(3-{6-[2-(2-Fluoro-4-trifluoromethyl-phenyl)-ethylamino]-2-methoxy-pyrimidin-4-yl}-phenyl)-ethyl]-acetamide hydrochloride]"
12,2,"COc1ccc(CCNc2cc(-c3ccccc3NS(C)(=O)=O)nc(OC)n2)cc1 [Example 10(d), N-(2-{2-Methoxy-6-[2-(4-methoxy-phenyl)-ethylamino]-pyrimidin-4-yl}-phenyl)-methanesulfonamide]"
13,42,COc1ccc(CCNc2cc(-c3ccc(N(C)C)cc3)nc(OC)n2)cc1 [Example 10(I)]
14,13,"COc1ccc(CCNc2cc(-c3ccc(N4CCOCC4)cc3)nc(OC)n2)cc1 [Example 10(k), [2-Methoxy-6-(4-morpholin-4-yl-phenyl)-pyrimidin-4-yl]-[2-(4-methoxy-phenyl)-ethyl]-amine]"
15,4,"CCOC(=O)OC(C)OC(=O)C(C)(C)c1cccc(-c2cc(NCCc3ccc(Cl)cc3Cl)nc(OC)n2)c1 (stereo not shown) [Example 50, 2-(3-{6-[2-(2,4-Dichloro-phenyl)-ethylamino]-2-methoxy-pyrimidin-4-yl}-phenyl)-2-methyl-propionic acid 1-ethoxycarbonyloxy-ethyl ester hydrochloride]"

# More lines, now with the values behind:
row,Structure (SMILES),IC50 [nM]
1,"COc1nc(NCCc2ccc(Cl)cc2Cl)cc(N2CCCC(C(=O)O)C2)n1 (stereo not shown) [Example 73, 1-{6-[2-(2,4-Dichloro-phenyl)-ethylamino]-2-methoxy-pyrimidin-4-yl}-piperidine-3-carboxylic acid]",0.8
2,"COC(=O)C1(c2cccc(-c3cc(NCCc4ccc(OC(F)(F)F)cc4)nc(OC)n3)c2)CCOCC1 [Example 84(b), 4-(3-{2-Methoxy-6-[2-(4-trifluoromethoxy-phenyl)-ethylamino]-pyrimidin-4-yl}-phenyl)-tetrahydro-pyran-4-carboxylic acid methyl ester]",70
3,"COc1ccc(CCNc2cc(-c3ccsc3/C=N/O)nc(OC)n2)cc1 [Example 26(d), 3-{2-Methoxy-6-[2-(4-methoxy-phenyl)-ethylamino]-pyrimidin-4-yl}-thiophene-2-carbaldehyde oxime]",0.4
4,"COc1ccc(CCNc2cc(-c3ccc(F)c(/C=N\O)c3)nc(OC)n2)cc1 [Example 26, 2-Fluoro-5-{2-methoxy-6-[2-(4-methoxy-phenyl)-ethylamino]-pyrimidin-4-yl}-benzaldehyde oxime]",4.5
5,"COc1nc(NCCc2ccc(OC(F)(F)F)cc2)cc(-c2ccc(F)c(C(C)(C)C(=O)O)c2)n1 [Example 70, 2-(2-Fluoro-5-{2-methoxy-6-[2-(4-trifluoromethoxy-phenyl)-ethylamino]-pyrimidin-4-yl}-phenyl)-2-methyl-propionic acid]",193
6,"COc1ccc(CCNc2cc(-c3cccc(CNCCc4ccc(O)cc4)c3)nc(OC)n2)cc1 [Example 13(c), 4-[2-(3-{2-Methoxy-6-[2-(4-methoxy-phenyl)-ethylamino]-pyrimidin-4-yl}-benzylamino)-ethyl]-phenol hydrochloride]",10
7,"COc1ccc(CCNc2cc(-c3c(C)noc3C)nc(OC)n2)cc1 [Example 8(d), [6-(3,5-Dimethyl-isoxazol-4-yl)-2-methoxy-pyrimidin-4-yl]-[2-(4-methoxy-phenyl)-ethyl]-amine]",1.9
8,"COc1ccc(CCNc2cc(-c3ccc(F)c(CN)c3)nc(OC)n2)cc1 [Example 27, [6-(3-Aminomethyl-4-fluoro-phenyl)-2-methoxy-pyrimidin-4-yl]-[2-(4-methoxy-phenyl)-ethyl]-amine hydrochloride]",41
9,"COc1nc(NCCc2ccc(Cl)cc2Cl)cc(-c2cccc(OCC#N)c2)n1 [Example 22(e), (3-{6-[2-(2,4-Dichloro-phenyl)-ethylamino]-2-methoxy-pyrimidin-4-yl}-phenoxy)-acetonitrile]",0.4
10,"CNC(=O)c1ccc(-c2cc(NCCc3ccc(OC)cc3)nc(OC)n2)s1 [Example 62, 5-{2-Methoxy-6-[2-(4-methoxy-phenyl)-ethylamino]-pyrimidin-4-yl}-thiophene-2-carboxylic acid methylamide trifluoroacetate]",0.3
11,"COc1ccc(CCNc2cc(-c3cccc(C(=O)O)c3)nc(SC)n2)cc1OC [Example 16(b), 3-{6-[2-(3,4-Dimethoxy-phenyl)-ethylamino]-2-methylsulfanyl-pyrimidin-4-yl}-benzoic acid]",243
12,"COc1ccc(CCNc2cc(-c3cccc(C(C)=O)c3)nc(OC)n2)cc1 [Example 35(h), 1-(3-{2-Methoxy-6-[2-(4-methoxy-phenyl)-ethylamino]-pyrimidin-4-yl}-phenyl)-ethanone]",5
13,"COc1ccc(CCNc2cc(OCc3ccccc3OC)nc(OC)n2)cc1 [Example (48), [2-Methoxy-6-(2-methoxy-benzyloxy)-pyrimidin-4-yl]-[2-(4-methoxy-phenyl)-ethyl]-amine hydrochloride]",12
